# pIC50, pKi: −log10 of the molar value.
# Experiments:
# CYP1A2 [1] = target: T1, CYP1A2 (Homo sapiens, UniProt P05177); experiment: IC50 assay, phenacetin O-deethylation in HLM
# CYP1A2 [2] = target: T1, CYP1A2; experiment: Inhibition of CYP1A2 by piperlongumine (dose-dependent, Ki); format: in vitro ADME
# Experimental: In the assay of PPL inhibition in reversible manner, human liver microsomes (0.3 mg/mL final concentration) were the last reagent added into the incubation system to initiate the reaction; after 30 min the reaction was terminated by adding 2 mL of ethyl acetate. Caffeine (64 μM) was added as internal standard and samples were shaken for 10 min at 1500 rpm and centrifuged for 5 min at 2860x g. The organic layers (1.8 mL) were evaporated to dryness under a stream of compressed air at room temperature. The residues were dissolved in 80 μL of the mobile phase and injected in HPLC.
# The kinetic parameters were calculated from nonlinear regression using GraphPad Prism Version 3.03 (San Diego, CA, USA). The Intrinsic Clearance (CLint) was obtained considering the Hill coefficient. The Unbounded Intrinsic Clearance (CLuint), Predicted in vivo Clearance (CL) and Hepatic Clearance (CLH) were determined according to Subramarian and Tracy[15] and Austin et al.[17]. Hepatic extraction ratio was calculated according to Kashuba et al.[21]. Dose-dependent inhibition parameters were determined employing SigmaPlot version 12.0 (Chicago, IL, USA). The Lineweaver-Burk plot was used to determine the inhibition profile. […] The parameters kinact and KI in time-dependent inhibition were calculated employing GraphPad Prism Version 3.03.
# [3] = system: recombinant human CYP (rhCYP) isoforms; experiment: P450 reaction phenotyping by rhCYP isoforms; format: in vitro ADME; conditions: specific inhibitors in pooled HLM and recombinant CYP450 isoforms
# Experimental: The capacity of selected major human P450 isoforms to metabolize PPL was screened using human recombinant isoenzymes. Briefly, PPL (S50 concentration) was added into a 200 μL incubation mixture containing P450 isoform (50 pmol/mL for CYP3A4, CYP1A2, CYP2C9, 2B6, 2D6 and 2C19; 25 pmol/mL for CYP2C8 and […]; final concentrations), NADPH regeneration system solution A (1.3 mM NADP^+ and 3.3 mM glucose-6-phosphate), NADPH regeneration system solution B (0.4 U/mL glucose-6-phosphate dehydrogenase), potassium phosphate buffer pH 7.4 (100 mM), except for CYP2C9 where the phosphate buffer was substituted by tris buffer pH 7.5 (100 mM), maintaining for 50 min in shaking water bath. In order to enhance the sensibility one sample was pooled from 4 single reactions. PPL metabolites were analyzed by a GC-MS as described previously. The MS peak areas of PPL metabolites were recorded to determine the contributions of the P450 enzymes.
# Phenotyping study at 50 min. In order to evaluate the CYP isoforms involved in M4 formation, a similar study as described in the main text was performed, except by the time of incubation of 50 min (Fig. S13).
# human liver microsomes = experiment: In vitro kinetic study of PPL metabolism (substrate depletion) in human liver microsomes; format: in vitro ADME
# Experimental: The in vitro kinetic study was performed setting the incubation conditions through the maintenance of initial velocity (V0); 0.45 mg/mL microsomal protein and 16 min time incubation were selected and the substrate concentration was ranged from 0.38 to 283.6 μM. The substrate depletion was quantified employing an analytical validated method (Tables S1, S2 and S3 and Fig. S1-Supplementary Information).
# The metabolism was evaluated by measuring the rate of disappearance of the PPL peak. The incubations were performed in triplicate using 10 mL amber tubes. The metabolism medium consisted of substrate, a NADPH regeneration system solution A (1.3 mM NADP^+ and 3.3 mM glucose-6-phosphate), a NADPH regeneration system solution B (0.4 U/mL glucose-6-phosphate dehydrogenase), HLM and a potassium phosphate buffer pH 7.4 (100 mM) in a total volume of 200 μL. This microsomal medium was incubated in a shaking water bath at 37 °C. After pre-warming for 5 min at 37 °C to favor the formation of NADPH from the solutions A and B, the reaction was initiated by the addition of the HLM. To determine the enzymatic kinetic parameters, the linear conditions for microsomal protein concentration and for incubation time were optimized. The microsomal protein concentration was evaluated from 0.1 to 1.5 mg of protein per mL (n = 3), and the incubation time was varied from 0 to 40 min (n = 3). The linear range was obtained from these parameters and used to perform the substrate variation concentration at V0 conditions. The reactions were stopped by the addition of 200 μL of cold acetonitrile, gently agitated for 20 s and then centrifuged for 5 min at 2860x g. Finally, aliquots of the supernatant were removed and injected into the chromatographic system. Control incubations were performed in the absence of the cofactor solution and in the absence of the HLM. The difference between ‘with’ and ‘without’ NADPH was attributed to CYP450-mediated metabolism.
# (§1) The kinetic parameters were calculated from nonlinear regression using GraphPad Prism Version 3.03 (San Diego, CA, USA). The Intrinsic Clearance (CLint) was obtained considering the Hill coefficient. The Unbounded Intrinsic Clearance (CLuint), Predicted in vivo Clearance (CL) and Hepatic Clearance (CLH) were determined according to Subramarian and Tracy[15] and Austin et al.[17]. Hepatic extraction ratio was calculated according to Kashuba et al.[21]. Dose-dependent inhibition parameters were determined employing SigmaPlot version 12.0 (Chicago, IL, USA). The Lineweaver-Burk plot was used to determine the inhibition profile. The second plot of slopes from Lineweaver-Burk plot versus PPL concentrations was utilized to calculate the Ki. The parameters kinact and KI in time-dependent inhibition were calculated employing GraphPad Prism Version 3.03.
# [4] = Piperlongumine plasma protein binding (ultrafiltration); format: in vitro ADME
# Experimental: Piperlongumine-protein binding. An in vitro study with a microsomal and plasma protein was carried out using a concentration of PPL approximately corresponding to its S50 (n = 3). The plasma protein binding was evaluated to predict the in vivo clearance, using a plasma protein concentration of 42 mg/mL. The samples were incubated with pooled human liver microsomes at 37 °C as described in section above. The same V0 conditions obtained (protein concentration and incubation time) were applied in this study, but in the absence of the cofactor NADPH. Furthermore, a control sample without protein was analyzed simultaneously for comparison purposes. These mixtures were added to the centrifugal filter device (Microcon YM-30, 30,000 molecular weight cut-off; Millipore Corporation, Bedford, MA, USA) and centrifuged at 21800 x g for 30 min at 37 °C (Hitachi CF16RXII, Himac, Tokyo, Japan). The ultra-filtrate was directly assayed by high-performance liquid chromatography at the conditions previously described.
# CYP2D6 = CYP2D6 (Homo sapiens, UniProt P10635); experiment: biochemical
# Sequence of CYP2D6 (P10635 whole entry): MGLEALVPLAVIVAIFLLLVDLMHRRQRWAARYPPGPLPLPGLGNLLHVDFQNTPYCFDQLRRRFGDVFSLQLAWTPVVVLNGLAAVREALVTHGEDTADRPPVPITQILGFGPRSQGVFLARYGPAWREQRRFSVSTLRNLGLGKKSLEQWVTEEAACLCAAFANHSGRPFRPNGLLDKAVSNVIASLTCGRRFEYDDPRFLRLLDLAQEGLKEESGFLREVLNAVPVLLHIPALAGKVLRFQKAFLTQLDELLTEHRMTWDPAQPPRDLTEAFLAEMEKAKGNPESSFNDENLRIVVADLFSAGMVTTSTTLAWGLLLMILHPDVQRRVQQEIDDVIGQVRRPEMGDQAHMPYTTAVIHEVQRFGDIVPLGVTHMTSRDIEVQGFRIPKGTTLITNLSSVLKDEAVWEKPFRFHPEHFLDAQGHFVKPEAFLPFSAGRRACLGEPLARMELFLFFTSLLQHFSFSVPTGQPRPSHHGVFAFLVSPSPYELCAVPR
# CYP1A2 [5] = target: T1, CYP1A2; experiment: Mechanism-based (time-dependent) inhibition of CYP1A2 by piperlongumine; format: in vitro ADME; set-up: kinact: dose or concentration left out as unconfirmed; conditions: human liver microsomes, pH 7.4, probe phenacetin […] µM
# Experimental: Reactions were terminated as described above.
# as §1
# T1 sequence (P05177 whole entry): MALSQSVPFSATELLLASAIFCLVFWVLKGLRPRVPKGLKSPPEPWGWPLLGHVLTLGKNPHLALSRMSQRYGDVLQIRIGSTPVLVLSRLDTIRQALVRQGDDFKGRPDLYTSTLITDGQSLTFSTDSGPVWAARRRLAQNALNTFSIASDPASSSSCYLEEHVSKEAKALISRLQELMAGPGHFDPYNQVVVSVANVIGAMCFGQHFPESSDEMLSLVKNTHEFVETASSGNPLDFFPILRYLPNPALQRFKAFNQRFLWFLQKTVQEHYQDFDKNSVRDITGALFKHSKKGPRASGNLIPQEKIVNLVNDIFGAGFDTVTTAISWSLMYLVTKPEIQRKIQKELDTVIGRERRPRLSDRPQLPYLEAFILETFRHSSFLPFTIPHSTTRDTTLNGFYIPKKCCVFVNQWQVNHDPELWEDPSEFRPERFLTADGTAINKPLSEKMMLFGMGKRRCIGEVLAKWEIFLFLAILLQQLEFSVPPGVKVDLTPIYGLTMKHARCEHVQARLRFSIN
structure (smiles),measurement,setting,value
"COc1cc(/C=C/C(=O)N2CCC=CC2=O)cc(OC)c1OC [PPL, Piperlongumine]",pIC50,CYP1A2 [1],5.14
same,pKi,CYP1A2 [2],5.82
same,mode of inhibition,CYP1A2 [2]; Lineweaver-Burk plot,competitive type
same,main CYP isoenzymes involved in PPL metabolism,[3],CYP1A2 and CYP3A4
same,Hill coefficient,"human liver microsomes; HLM 0.45 mg/mL, 16 min",3.0
same,S50,"human liver microsomes; HLM 0.45 mg/mL, 16 min, sigmoidal profile",127.7 µM
same,Vmax,"human liver microsomes; HLM 0.45 mg/mL, 16 min, substrate 0.38 to 283.6 μM, sigmoidal profile",5.5 ± 0.5 nmol/mg protein/min
same,S50 in human relative to the value observed in rats,"human liver microsomes; human vs rat liver microsomes, rat value ref 19",2.7 times
same,plasma binding,"[4]; PPL approx. S50, plasma protein 42 mg/mL",93%
same,"fraction unbound at 16 min, 127.7 μM","[4]; plasma protein (42 mg/mL), PPL 127.70 μM, read-out: fuplasma (free fraction of the compound in plasma)",0.07
same,pIC50,CYP2D6,< 4.00
same,kinact,CYP1A2 [5],0.000233 s⁻¹
same,KI (inactivation),CYP1A2 [5]; read-out: KI (inactivation parameter),8 µM
